Data on 1 compound can be found in PMC11854450 (RSC Chemical Biology, 2025).

Assay in all cases: fluorogenic activity assay
Format in all cases: biochemical

For one test, the target named is T1, activeCASP-3 (Homo sapiens, UniProt P42574).
T1 sequence (P42574 29-175): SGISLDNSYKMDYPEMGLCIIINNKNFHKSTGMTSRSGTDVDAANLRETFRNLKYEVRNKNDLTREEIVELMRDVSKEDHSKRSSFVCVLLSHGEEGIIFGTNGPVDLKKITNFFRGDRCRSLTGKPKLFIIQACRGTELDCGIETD
T1 sequence (P42574 176-277): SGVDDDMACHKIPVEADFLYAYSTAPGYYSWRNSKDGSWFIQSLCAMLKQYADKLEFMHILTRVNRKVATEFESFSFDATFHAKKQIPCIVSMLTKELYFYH
The note with it: 0.3 μM enzyme; 1 h pre-incubation; PBS.

The next test addresses T2, activeCASP10 (Homo sapiens, UniProt Q92851).
T2 sequence (Q92851 220-415): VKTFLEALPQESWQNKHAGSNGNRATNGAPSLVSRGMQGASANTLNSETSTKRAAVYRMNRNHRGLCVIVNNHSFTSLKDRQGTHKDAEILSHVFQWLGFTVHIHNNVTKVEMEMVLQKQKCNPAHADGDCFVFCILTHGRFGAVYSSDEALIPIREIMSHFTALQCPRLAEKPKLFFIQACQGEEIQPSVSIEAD
T2 sequence (Q92851 416-521): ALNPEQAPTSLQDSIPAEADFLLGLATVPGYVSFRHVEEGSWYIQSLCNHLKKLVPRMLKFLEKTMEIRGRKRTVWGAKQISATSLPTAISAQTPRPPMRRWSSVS
The note with it: 333 nM enzyme; 1 h pre-incubation; PBS with 333 mM citrate.

In another test the target is active caspase-8 (Homo sapiens, UniProt Q14790). The note with it: 1 h pre-incubation; PBS.
Sequence of active caspase-8 (Q14790 217-374): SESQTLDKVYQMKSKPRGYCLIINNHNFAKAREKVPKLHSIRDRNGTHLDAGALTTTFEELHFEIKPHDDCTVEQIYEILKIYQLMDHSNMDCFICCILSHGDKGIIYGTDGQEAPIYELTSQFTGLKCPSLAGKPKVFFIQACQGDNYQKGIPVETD
Sequence of active caspase-8 (Q14790 385-479): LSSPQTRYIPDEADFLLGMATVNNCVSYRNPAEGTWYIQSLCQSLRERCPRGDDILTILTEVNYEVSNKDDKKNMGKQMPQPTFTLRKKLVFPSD

Each structure is given as a SMILES string.

For `NS(=O)(=O)C#Cc1ccccc1` [PFTμ, pifithrin-μ], the Relative activity entry is “PFTμ also significantly inhibited active caspase-3 and active caspase-8” on activeCASP-3; “we found that PFTμ inhibited both proteoforms to some degree” on activeCASP10; “PFTμ also significantly inhibited active caspase-3 and active caspase-8” at active caspase-8.
